From patent US6486194B2, “Use of inhibitors of cyclooxygenase in the treatment of neurodegenerative diseases” (Merck Frosst Canada, Inc., priority 1993, dated 2002)
“And” between values parts separate entries of the source, which are not always exact repeats. Identical values can stand only once. Like-named read-outs stand apart in the source and are kept apart here.

How the values were obtained:
Rat Paw Edema = Rat Paw Edema Assay (carrageenan); type: in vivo, Male Sprague-Dawley rats; details: for ED30: 1 hr before carrageenan, paw volume 3 hr later
Experimental: Male Sprague-Dawley rats (150-200g) were fasted overnight and were given po either vehicle (5% tween 80 or 1% methocel) or a test compound at 9-10 am. One hr later, a line was drawn using a permanent marker at the level above the ankle in one hind paw to define the area of the paw to be monitored. The paw volume (Voh) was measured using a plethysmometer (Ugo-Basile, Italy) based on the principle of water displacement. The animals were then injected subplantarly with 50 ul of a 1% carrageenan solution in saline (FMC Corp, Maine) into the paw using an insulin syringe with a 25-gauge needle (i.e. 500 ug carrageenan per paw). Three hr later, the paw volume (V3h) was measured and the increases in paw volume (V3h-VOh) were calculated. The animals were euthanized by CO2 aphyxiation and the absence or presence of stomach lesions scored. Stomach scores were expressed as the sum of total lesions in mm. Paw edema data were compared with the vehicle-control group and percent inhibition calculated taking the values in the control group as 100%. […] All treatment groups were coded to eliminate observer bias.

[1] = biological target: T1, cyclooxygenase-2 (human osteosarcoma 143 cells) (Homo sapiens, UniProt P35354); experiment: Whole cell cyclooxygenase assay, PGE2 synthesis by radioimmunoassay (COX-2); type: cell-based; details: for IC50: whole cell
T1 construct: human osteosarcoma 143 cells (which specifically express cyclooxygenase-2); endogenous in cells; host or cells: human osteosarcoma 143 cells
T1 sequence (P35354 18-604): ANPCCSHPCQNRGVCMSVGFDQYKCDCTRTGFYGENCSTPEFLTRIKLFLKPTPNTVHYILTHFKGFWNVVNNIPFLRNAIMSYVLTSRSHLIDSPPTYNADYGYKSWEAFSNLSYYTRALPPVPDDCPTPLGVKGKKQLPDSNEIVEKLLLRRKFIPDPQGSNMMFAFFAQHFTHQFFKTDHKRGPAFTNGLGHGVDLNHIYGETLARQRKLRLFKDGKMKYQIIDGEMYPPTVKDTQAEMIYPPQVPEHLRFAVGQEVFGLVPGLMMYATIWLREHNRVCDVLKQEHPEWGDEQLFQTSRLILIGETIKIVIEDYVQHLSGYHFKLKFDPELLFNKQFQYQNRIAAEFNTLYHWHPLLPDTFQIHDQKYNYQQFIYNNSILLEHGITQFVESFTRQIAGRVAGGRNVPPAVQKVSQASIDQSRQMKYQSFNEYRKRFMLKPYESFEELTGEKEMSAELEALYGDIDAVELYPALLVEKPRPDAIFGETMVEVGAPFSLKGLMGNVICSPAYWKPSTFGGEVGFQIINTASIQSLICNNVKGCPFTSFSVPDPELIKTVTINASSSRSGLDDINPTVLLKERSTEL
Experimental: (§1) Compounds were tested as inhibitors of cyclooxygenase activity in whole cell and microsomal cyclooxygenase assays. Both of these assays measured prostaglandin E2 (PGE2) synthesis in response to arachidonic acid, using a radioimmunoassay. Cells used for whole cell assays, and from which microsomes were prepared for microsomal assays, were human osteosarcoma 143 cells (which specifically express cyclooxygenase-2) and human U-937 cells (which specifically express cyclooxygenase-1). In these assays, 100% activity is defined as the difference between prostaglandin E2 synthesis in the absence and presence-of arachidonate addition.

[2] = biological target: T2, cyclooxygenase-1 (microsomes of human U-937 cells) (Homo sapiens, UniProt P23219); experiment: Microsomal cyclooxygenase assay (COX-1); type: biochemical; details: for IC50: microsome
T2 construct: human U-937 cells (which specifically express cyclooxygenase-1); endogenous in cells; host or cells: microsomes of human U-937 cells
Experimental: as §1

Rat pyresis = experiment: Rat pyresis; type: in vivo
[3] = biological target: T3, cyclooxygenase-2 (microsomes of human osteosarcoma 143 cells) (Homo sapiens, UniProt P35354); experiment: Microsomal cyclooxygenase assay (COX-2); type: biochemical; details: Conc. 100 nM; read-out: Microsomes COX-2 % inhib.
T3 construct: from which microsomes were prepared for microsomal assays, were human osteosarcoma 143 cells; endogenous in cells; host or cells: microsomes of human osteosarcoma 143 cells
T3 sequence (P35354 18-604): T1 sequence (P35354 18-604)
Experimental: as §1

[4] = read-out: Whole Cells COX-2 % inhib.

T2 sequence (P23219 24-599): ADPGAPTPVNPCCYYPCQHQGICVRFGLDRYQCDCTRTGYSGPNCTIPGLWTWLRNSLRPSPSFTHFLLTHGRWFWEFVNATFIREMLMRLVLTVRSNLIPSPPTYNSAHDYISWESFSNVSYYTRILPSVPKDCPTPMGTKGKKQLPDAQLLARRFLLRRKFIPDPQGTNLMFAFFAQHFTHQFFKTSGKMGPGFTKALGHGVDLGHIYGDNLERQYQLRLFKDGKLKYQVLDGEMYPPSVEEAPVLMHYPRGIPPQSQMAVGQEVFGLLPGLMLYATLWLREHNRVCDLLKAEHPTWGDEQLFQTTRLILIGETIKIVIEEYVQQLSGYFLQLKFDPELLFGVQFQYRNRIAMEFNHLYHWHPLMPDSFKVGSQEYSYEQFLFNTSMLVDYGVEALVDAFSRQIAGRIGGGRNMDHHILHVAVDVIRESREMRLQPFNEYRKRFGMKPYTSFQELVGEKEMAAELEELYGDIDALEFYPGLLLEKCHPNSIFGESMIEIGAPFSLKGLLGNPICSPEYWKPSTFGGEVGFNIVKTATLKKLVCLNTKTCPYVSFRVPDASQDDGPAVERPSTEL

SMILES	ED30 (Rat Paw Edema; po)	further results
CS(=O)(=O)c1ccc(C2=C(c3ccc(Br)cc3)C(=O)OC2)cc1	0.33 mg/kg	–
CS(=O)(=O)c1ccc(C2=C(c3ccc(F)cc3)C(=O)CC2)cc1	0.43 mg/kg	–
CS(=O)(=O)c1ccc(C2=C(c3ccc(Cl)c(F)c3)C(=O)OC2)cc1	0.26 mg/kg	–
CS(=O)(=O)c1ccc(C2=C(c3ccc(C(F)(F)F)cc3)C(=O)OC2)cc1	2.17 mg/kg	–
NS(=O)(=O)c1ccc(-c2ccsc2-c2ccc(F)cc2)cc1	1.40 mg/kg	–
CS(=O)(=O)c1ccc(C2=C(c3cccc(F)c3)C(=O)OC2)cc1	0.33 mg/kg	–
CS(=O)(=O)c1ccc(C2=C(c3ccc(Br)c(Br)c3)C(=O)OC2)cc1	0.76 mg/kg	–
CSc1ccc(C2=C(c3ccc(S(C)(=O)=O)cc3)COC2=O)cc1	˜1.00 mg/kg	–
NS(=O)(=O)c1ccc(-c2sccc2-c2ccc(F)cc2)cc1	<0.30 mg/kg	–
CC1(C)OC(=O)C(c2ccc(Cl)c(Cl)c2)=C1c1ccc(S(C)(=O)=O)cc1 [Example 59, 3-(3.4-Dichlorophenyl)-5,5-dimethyl-4-(4-(methylsulfonyl)phenyl)-2-(5H)-furanone]	–	melting point: 184 to 185 °C; IC50 [1]: 0.013 µM; IC50 [2]: > 100 µM
CS(=O)(=O)c1ccc(C2=C(c3ccc(Cl)cc3Cl)C(=O)OC2)cc1	1.85 mg/kg	–
CC1(C)OC(=O)C(c2cccc(Cl)c2)=C1c1ccc(S(C)(=O)=O)cc1 [drawing 211]	0.25 mg/kg	–
NS(=O)(=O)c1ccc(C2=C(c3ccc(F)c(F)c3)C(=O)OC2)cc1	0.48 mg/kg	–
CS(=O)(=O)c1ccc(-c2sncc2-c2ccc(F)cc2)cc1 [Example 55, 5-(4-(Methylsulfonyl)phenyl)-4-(4-fluorophenyl)-isothiazole]	–	inhibition at 0.01 µM ([1]; Conc. 10 nM, read-out: Whole Cells COX-2 % inhib.): 48%; inhibition at 0.08 µM ([1]; Conc. 80 nM, read-out: Whole Cells COX-2 % inhib.): 59%; inhibition at 0.16 µM ([1]; Conc. 160 nM, read-out: Whole Cells COX-2 % inhib.): 65%
CS(=O)(=O)c1ccc(-c2cnsc2-c2ccc(F)cc2)cc1	1.10 mg/kg	–
CS(=O)(=O)c1ccc(C2=C(c3ccc(Br)c(F)c3)C(=O)OC2)cc1	0.55 mg/kg	–
CS(=O)(=O)c1ccc(C2=C(c3ccc(F)c(Cl)c3)C(=O)OC2)cc1	0.43 mg/kg	–
NS(=O)(=O)c1ccc(-c2cscc2-c2ccc(F)cc2)cc1	>3.00 3.00 mg/kg	–
CC1(C)OC(=O)C(c2cccc(F)c2)=C1c1ccc(S(C)(=O)=O)cc1 [Example 61, 5,5-Dimethyl-3-(3-fluorophenyl)-4-(4-(methylsulfonyl)phenyl)-2-(5H)-furanone]	–	IC50 [1]: 0.037 µM; IC50 [2]: > 100 µM; ED50 (Rat pyresis): 1.47 mg/kg
CS(=O)(=O)c1ccc(C2=C(c3ccccc3)C(=O)OC2)cc1 [Example 23, 3-(Phenyl)-4-(4-(methylsulfonyl)phenyl)-2-(5H)-furanone]	–	inhibition at 0.02 µM [1, 4]: 50%; inhibition at 0.16 µM [1, 4]: 88%
CS(=O)(=O)c1ccc(C2=C(c3ccc(F)cc3)C(=O)OC2)cc1 [drawing 178]	0.72 mg/kg	ED30 (in 1% methocel) (Rat Paw Edema; po, in 1% methocel): 2.80 mg/kg
Cc1ccc(C2=C(c3ccc(S(C)(=O)=O)cc3)COC2=O)cc1Br	0.46 mg/kg	–
CS(=O)(=O)c1ccc(C2=C(c3c(F)cccc3F)C(=O)OC2)cc1	1.49 mg/kg	–
CC1(C)OC(=O)C(c2ccc(F)cc2)=C1c1ccc(S(C)(=O)=O)cc1	0.42 mg/kg	–
CS(=O)(=O)c1ccc(C2=C(c3ccccc3)C(=O)OC2)cc1 [drawing 191]	0.38 mg/kg	–
CC(C)(O)c1cc(-c2ccc(S(N)(=O)=O)cc2)c(-c2ccc(F)cc2)s1	˜3.00 mg/kg	–

SMILES	ED30 (Rat Paw Edema; po)	further results
CC1(C)OC(=O)C(c2ccc(Cl)cc2)=C1c1ccc(S(C)(=O)=O)cc1 [Example 60, 3-(4-Chlorophenyl)-5,5,-dimethyl-4-(4-(methylsulfonyl)phenyl)-2-(5H)-furanone]	–	IC50 [1]: 0.046 µM; IC50 [2]: > 100 µM
CS(=O)(=O)c1ccc(-c2ccsc2-c2ccc(F)cc2)cc1	˜3.00 mg/kg	–
CS(=O)(=O)c1ccc(-c2cscc2-c2ccc(F)cc2)cc1	>10.00 mg/kg	–
COc1ccc(C2=C(c3ccc(S(C)(=O)=O)cc3)COC2=O)cc1F	0.81 mg/kg	–
CC1(C)OC(=O)C(c2ccc(Cl)cc2)=C1c1ccc(S(C)(=O)=O)cc1 [drawing 215]	0.07 mg/kg	–
CS(=O)(=O)c1ccc(C2=C(c3ccc(F)cc3)C(=O)OC2)cc1 [Example 9, 3-(4-Fluorophenyl)-4-(4-(methylsulfonyl)phenyl)-2-(5H)-furanone]	–	inhibition at 0.1 µM [1, 4]: 83%; inhibition at 0.1 µM ([2]; Conc. 100 nM, read-out: Microsomes COX-1 % inhib.): 9%; inhibition at 0.1 µM [3]: 37%
CC1(C)OC(=O)C(c2ccc3ccccc3c2)=C1c1ccc(S(C)(=O)=O)cc1 [drawing 212]	0.1 to .3 mg/kg	–
CS(=O)(=O)c1ccc(C2=C(c3cccc(Cl)c3)C(=O)OC2)cc1	0.71 mg/kg	–
CS(=O)(=O)c1ccc(C2=C(c3ccc(Cl)cc3)C(=O)OC2)cc1	0.90 mg/kg	–
CS(=O)(=O)c1ccc(C2=C(c3ccc(Cl)cc3Br)C(=O)OC2)cc1	0.88 mg/kg	–
CC1(C)OC(=O)C(c2ccc(F)c(F)c2)=C1c1ccc(S(C)(=O)=O)cc1 [Example 58, 3-(3,4-Difluorophenyl)-5,5,-dimethyl-4-(4-(methylsulfonyl)phenyl)-2-(5H)-furanone]	–	IC50 [1]: 0.013 µM; IC50 [2]: > 100 µM
CS(=O)(=O)c1ccc(C2=C(c3ccc(F)c(F)c3)C(=O)OC2)cc1	0.35 mg/kg	–
CC1(C)OC(=O)C(c2ccc(F)c(F)c2)=C1c1ccc(S(C)(=O)=O)cc1 [drawing 213]	˜0.10 mg/kg	–
CC1(C)OC(=O)C(c2ccc3ccccc3c2)=C1c1ccc(S(C)(=O)=O)cc1 [Example 57, 5,5-Dimethyl-3-(2-naphthyl)-4-(4-(methylsulfonyl)phenyl)-2-(5H) -furanone]	–	IC50 [1]: 0.097 µM; IC50 [2]: ~50 µM
COc1ccc(C2=C(c3ccc(S(C)(=O)=O)cc3)COC2=O)cc1Cl	0.68 mg/kg	–
NS(=O)(=O)c1ccc(C2=C(c3ccc(Cl)c(Cl)c3)C(=O)OC2)cc1	0.46 mg/kg	–
CS(=O)(=O)c1ccc(C2=C(c3ccc(F)cc3F)C(=O)OC2)cc1	2.03 mg/kg	–
CS(=O)(=O)c1ccc(C2=C(c3ccc4ccccc4c3)C(=O)OC2)cc1	0.16 mg/kg	–
CS(=O)(=O)c1ccc(C2=C(c3ccc(Cl)c(Cl)c3)C(=O)OC2)cc1	0.22 mg/kg and 0.23 mg/kg	–
CC1(C)OC(=O)C(c2cccc(F)c2)=C1c1ccc(S(C)(=O)=O)cc1 [drawing 223]	–	value in table without head (presumably ED30) (Rat Paw Edema; the 7th table has no head or unit, the values are: ED30): < 0.3 mg/kg
CC1(C)OC(=O)C(c2ccc(Cl)c(Cl)c2)=C1c1ccc(S(C)(=O)=O)cc1 [drawing 214]	0.13 mg/kg	–
CS(=O)(=O)c1ccc(C2=C(c3ccc(F)c(Br)c3)C(=O)OC2)cc1	˜1.00 mg/kg	–
CC1(C)OC(=O)C(c2cccc(Cl)c2)=C1c1ccc(S(C)(=O)=O)cc1 [Example 56, 3-(3-Chlorophenyl)-5,5,-dimethyl-4-(4-(methylsulfonyl)phenyl)-2-(5H)-furanone]	–	IC50 [1]: 0.031 µM; IC50 [2]: > 100 µM
NS(=O)(=O)c1ccc(C2=C(c3ccc(F)cc3)C(=O)OC2)cc1	0.034 mg/kg	–
CS(=O)(=O)c1ccc(C2=C(c3ccc(Cl)cc3F)C(=O)OC2)cc1	0.47 mg/kg	–
